Test results reported in patent US20250011734A1, “DGAT1/2-INDEPENDENT ENZYME SYNTHESIZING STORAGE LIPIDS (DIESL)” (STICHTING HET NEDERLANDS KANKER INSTITUUT-ANTONI VAN …, priority 2021, published 2025).

Key:
RPE1 cells = test: Mitochondrial membrane potential and ATP levels in RPE1 cells lacking DIESL cultured without lipoproteins; type: cell-based
Method: For BODIPY 493/503 measurements in fixed HAP1 cells, HAP1 cells, grown in 10 cm plates, were collected by trypsinization and were fixed in Fix Buffer I (BD Biosciences) for 10 minutes at 37° C. Cells were pelleted, washed with FACS buffer (10% FBS in PBS), resuspended in FACS buffer and counted. 10 million cells were stained with 1 μg/ml BODIPY 493/503 and 5 μg/ml DAPI (Invitrogen), diluted in FACS buffer, for one hour at room temperature. Cells were washed once in FACS buffer, then passed through a 35 μm nylon mesh cell strainer into a FACS tube. Fluorescence was analyzed on an LSR Fortessa (BD Biosciences) analytical flow cytometer, using 405 and 488 nm lasers to detect DAPI and BODIPY 493/503, respectively. Data were analyzed using FlowJo (BD Life Sciences). Fluorescence plots represent the fluorescent signal measured in single haploid G1 cells, as determined by DAPI fluorescence intensity. […] Fluorescence (using a 561 nm laser) and data were analyzed as above. Fluorescence plots represent the fluorescent signal measured in single cells. Membrane potential was calculated by subtracting the fluorescence mean of depolarized (CCCP-treated) cells. RPE1 cells were plated in 96-well plates and ATP levels were measured using CellTitre-Glo (Promega) according to the manufacturer's instructions. […]

[1] = molecular target: T1, 3xHA-tagged DIESL (human TMEM68, DGAT1/2-Independent Enzyme Synthesizing Storage Lipids) (human, UniProt Q96MH6 1-324, N-glycosylation at its N-terminus (N-X-S/T motif; N5Q mutant served as negative control)); test: summary of the examples (crosslinking and co-immunoprecipitation)
T1 construct: It is an ER membrane protein and was assayed in cells or cell lysates; also called 3xHA-DIESL; transmembrane protein 68; not shown: the N-terminal position is inferred only from the name 3xH
T1 sequence: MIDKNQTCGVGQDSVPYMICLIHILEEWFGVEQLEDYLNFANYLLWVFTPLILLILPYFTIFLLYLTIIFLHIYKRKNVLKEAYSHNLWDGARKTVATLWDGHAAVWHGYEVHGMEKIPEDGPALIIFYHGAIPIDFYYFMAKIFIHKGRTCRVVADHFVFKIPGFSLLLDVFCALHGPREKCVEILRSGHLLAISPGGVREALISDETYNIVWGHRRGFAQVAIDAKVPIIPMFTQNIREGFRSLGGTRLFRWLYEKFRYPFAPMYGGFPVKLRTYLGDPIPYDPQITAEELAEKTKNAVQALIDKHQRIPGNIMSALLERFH
Method: HAP1 ΔDIESL and ATMX1ΔDIESL cells reconstituted with 3xHA-DIESL, or HeLa WT cells expressing 3xHA-DIESL, were washed with PBS and incubated in 1% paraformaldehyde for 20 minutes at room temperature. Cross-linking reactions were quenched by incubation in 0.2 M glycine for 10 minutes. Cells were then lysed in RIPA buffer on ice as described above, sonicated and protein concentrations were determined. Samples were separated by SDS-PAGE and immunoblotted as described above.
HAP1 ΔDIESL cells reconstituted with 3xHA-DIESL, grown to confluence in a 6-well plate, were lysed in 400 μl IP buffer (25 mM HEPES PH 7.0, 150 mM NaCl, 1% detergent [Tween-20 unless otherwise indicated], and protease/phosphatase inhibitor cocktails) on ice, sonicated and cleared by centrifugation. 250 μl of lysate was incubated with 10 μl of PBS-washed anti-HA magnetic beads (Pierce) overnight while rotating at 4° C. The following day, beads were washed three times in IP buffer before elution in SDS-PAGE sample buffer at 90° C. for 20 minutes. One-quarter of this eluate (along with the corresponding amount of input sample) were separated by SDS-PAGE and subjected to immunoblot analysis as above.

Molecule: CCOC(=O)[C@@]1(CCCCCCOc2ccc(Cl)cc2)CO1 [etomoxir]
- Effect of CPT1A inhibition on the oleic acid rescue (RPE1 cells; DIESL-deficient RPE1 cells without lipoproteins plus oleic acid, data not shown): sensitive

Molecule: CCCCCCCC/C=C\CCCCCCCC(=O)O [oleic acid]
- Rescue of decreased mitochondrial membrane potential and ATP levels (RPE1 cells; DIESL-deficient RPE1 cells, lipoprotein-deficient medium supplemented with 50 µM oleic acid for 24 hours, FIG. 19F): rescued

B1: Thioredoxin related transmembrane protein 1 (TMX1), human, endogenous in HAP1 / HeLa cells (enzyme)
chain: RRSNVRVITDENWRELLEGDWMIEFYAPWCPACQNLQPEWESFAEWGEDLEVNIAKVDVTEQPGLSGRFIITALPTIYHCKDGEFRRYQGPRTKKDFINFISDKEWKSIEPVSSWFGPGSVLMSSMSALFQLSMWIRTCHNYFIEDLGLPVWGSYTVFALATLFSGLLLGLCMIFVADCLCPSKRRRPQPYPYPSKKLLSESAQPLKKVEEEQEADEEDVSEEEAESKEGTNKDFPQNAIRQRSLGPSLATDKS
notes: Endogenous TMX1 of human cell lines (HAP1, HeLa), an ER membrane protein, detected with anti-TMX1 antibodies; also called transmembrane thioredoxin 1; TMX1 polypeptide
- binding result [1]: binds
